# According to US8952024B2, “Herbicidal pyrimidone derivatives” (E I du Pont de Nemours and Company, priority 2009, dated 2015):
# Legend:
# Format in all cases: in vivo
# [1] = tested on: pigweed (Amaranthus retroflexus); assay: Test A pre-/postemergence plant response; details: for Pigweed plant response rating: visual injury, 0 to 100 scale (0 no effect, 100 complete control), approx. ten days
# Method in brief: (§1)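 Injury scores (0, no effect; 100, complete control) come from visual comparison with untreated controls roughly ten days post-treatment. Test chemicals in a surfactant-containing non-phytotoxic solvent were applied as a directed soil spray preemergence and to one- to two-leaf seedlings postemergence.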
# [2] = tested on: barnyardgrass (Echinochloa crus-galli); assay: Test A pre-/postemergence plant response; details: for Barnyardgrass plant response rating: visual injury, 0 to 100 scale (0 no effect, 100 complete control), approx. ten days
# Method in brief: as §1
# [3] = tested on: wheat (Triticum aestivum); assay: Test A pre-/postemergence plant response; details: for Wheat plant response rating: visual injury, 0 to 100 scale (0 no effect, 100 complete control), approx. ten days
# Method in brief: as §1
# [4] = tested on: morningglory (Ipomoea spp.); assay: Test A pre-/postemergence plant response; details: for Morningglory plant response rating: visual injury, 0 to 100 scale (0 no effect, 100 complete control), approx. ten days
# Method in brief: as §1
# [5] = tested on: velvetleaf (Abutilon theophrasti); assay: Test A pre-/postemergence plant response; details: for Velvetleaf plant response rating: visual injury, 0 to 100 scale (0 no effect, 100 complete control), approx. ten days
# Method in brief: as §1
# [6] = tested on: giant foxtail (Setaria faberii); assay: Test A pre-/postemergence plant response; details: for Foxtail, Giant plant response rating: visual injury, 0 to 100 scale (0 no effect, 100 complete control), approx. ten days
# Method in brief: as §1
# corn (Zea mays) = assay: Test A pre-/postemergence plant response; details: for Corn plant response rating: visual injury, 0 to 100 scale (0 no effect, 100 complete control), approx. ten days
# Method in brief: as §1
# [7] = tested on: large crabgrass (Digitaria sanguinalis); assay: Test A pre-/postemergence plant response; details: for Crabgrass, Large plant response rating: visual injury, 0 to 100 scale (0 no effect, 100 complete control), approx. ten days
# Method in brief: as §1
# [8] = tested on: ducksalad (Heteranthera limosa); assay: Test B flooded paddy test; details: for Plant response rating, Flood, Ducksalad: 250 g ai/ha, flooded paddy test, visual rating on 0 to 100 scale (0 no effect, 100 complete control) after 13 to 15 days; for Plant response rating, Ducksalad: Flood (flooded paddy test), 13 to 15 days; for Ducksalad plant response rating: Flood, 31 g ai/ha, scale 0 to 100 (0 no effect, 100 complete control)
# Method in brief: (§2)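 Post-flood paddy application: compounds are introduced into water 3 cm deep over the soil, reaching plants at the 2-leaf stage. The water level is maintained, and after 13–15 days under greenhouse conditions, response is judged by eye relative to controls, where 100 means complete control.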
# rice (Oryza sativa) = assay: Test B flooded paddy test; details: for Plant response rating, Flood, Rice: 250 g ai/ha, flooded paddy test, visual rating on 0 to 100 scale (0 no effect, 100 complete control) after 13 to 15 days; for Plant response rating, Rice: Flood (flooded paddy test), 13 to 15 days; for Rice plant response rating: Flood, 31 g ai/ha, scale 0 to 100 (0 no effect, 100 complete control)
# Method in brief: as §2
# [9] = tested on: barnyardgrass (Echinochloa crus-galli); assay: Test B flooded paddy test; details: for Plant response rating, Flood, Barnyardgrass: 250 g ai/ha, flooded paddy test, visual rating on 0 to 100 scale (0 no effect, 100 complete control) after 13 to 15 days; for Plant response rating, Barnyardgrass: Flood (flooded paddy test), 13 to 15 days; for Barnyardgrass plant response rating: Flood, 31 g ai/ha, scale 0 to 100 (0 no effect, 100 complete control)
# Method in brief: as §2
# [10] = tested on: umbrella sedge (Cyperus difformis); assay: Test B flooded paddy test; details: for Plant response rating, Flood, Sedge, Umbrella: 250 g ai/ha, flooded paddy test, visual rating on 0 to 100 scale (0 no effect, 100 complete control) after 13 to 15 days; for Plant response rating, Sedge, Umbrella: Flood (flooded paddy test), 13 to 15 days; for Sedge, Umbrella plant response rating: Flood, 31 g ai/ha, scale 0 to 100 (0 no effect, 100 complete control)
# Method in brief: as §2
# [11] = Postemergence, 125 g ai/ha, 0 to 100 scale where 0 is no effect and 100 is complete control
# [12] = Preemergence, 125 g ai/ha, 0 to 100 scale, 0 = no effect, 100 = complete control
# [13] = Preemergence, 500 g ai/ha, 0 to 100 scale, 0 = no effect, 100 = complete control
# [14] = 62 g ai/ha, scale of 0 to 100 where 0 is no effect and 100 is complete control
# [15] = 125 g ai/ha, scale 0 to 100, 0 is no effect, 100 is complete control
smiles,measurement,setting,value
COc1ccc(-n2c(-c3cccc(C)c3)ncc(C(=O)C3=C(O)CCCC3=O)c2=O)cc1 [Compound 212],"Plant response rating, Pigweed",[1]; [11],100
same,Pigweed plant response rating,"[1]; Postemergence, 500 g ai/ha",100
same,"Plant response rating, Pigweed",[1]; [12],60
same,"Plant response rating, Pigweed",[1]; [13],90
same,"Plant response rating, Barnyardgrass",[2]; [11],50
same,Barnyardgrass plant response rating,"[2]; Postemergence, 500 g ai/ha",100
same,"Plant response rating, Barnyardgrass",[2]; [12],10
same,"Plant response rating, Barnyardgrass",[2]; [13],90
same,"Plant response rating, Wheat",[3]; [11],0
same,Wheat plant response rating,"[3]; Postemergence, 500 g ai/ha",0
same,"Plant response rating, Wheat",[3]; [12],0
same,"Plant response rating, Wheat",[3]; [13],0
same,"Plant response rating, Morningglory",[4]; [11],50
same,Morningglory plant response rating,"[4]; Postemergence, 500 g ai/ha",100
same,"Plant response rating, Morningglory",[4]; [12],0
same,"Plant response rating, Morningglory",[4]; [13],80
same,"Plant response rating, Velvetleaf",[5]; [11],70
same,Velvetleaf plant response rating,"[5]; Postemergence, 500 g ai/ha",70
same,"Plant response rating, Velvetleaf",[5]; [12],50
same,"Plant response rating, Velvetleaf",[5]; [13],70
same,"Plant response rating, Foxtail, Giant",[6]; [11],0
same,"Foxtail, Giant plant response rating","[6]; Postemergence, 500 g ai/ha",40
same,"Plant response rating, Foxtail, Giant",[6]; [12],10
same,"Plant response rating, Foxtail, Giant",[6]; [13],50
same,"Plant response rating, Corn",corn (Zea mays); [11],0
same,Corn plant response rating,"corn (Zea mays); Postemergence, 500 g ai/ha",0
same,"Plant response rating, Corn",corn (Zea mays); [12],0
same,"Plant response rating, Corn",corn (Zea mays); [13],0
same,"Plant response rating, Crabgrass, Large",[7]; [11],10
same,"Crabgrass, Large plant response rating","[7]; Postemergence, 500 g ai/ha",30
same,"Plant response rating, Crabgrass, Large",[7]; [12],0
same,"Plant response rating, Crabgrass, Large",[7]; [13],40
same,"Plant response rating, Flood, Ducksalad",[8],95
same,"Plant response rating, Ducksalad",[8]; [14],85
same,"Plant response rating, Ducksalad",[8]; [15],90
same,Ducksalad plant response rating,[8],85
same,"Plant response rating, Flood, Rice",rice (Oryza sativa),10
same,"Plant response rating, Rice",rice (Oryza sativa); [14],0
same,"Plant response rating, Rice",rice (Oryza sativa); [15],0
same,Rice plant response rating,rice (Oryza sativa),0
same,"Plant response rating, Flood, Barnyardgrass",[9],50
same,"Plant response rating, Barnyardgrass",[9]; [14],0
same,"Plant response rating, Barnyardgrass",[9]; [15],0
same,Barnyardgrass plant response rating,[9],0
same,"Plant response rating, Flood, Sedge, Umbrella",[10],95
same,"Plant response rating, Sedge, Umbrella",[10]; [14],85
same,"Plant response rating, Sedge, Umbrella",[10]; [15],90
same,"Sedge, Umbrella plant response rating",[10],80
CCc1ccc(-n2c(-c3cccc(C)c3)ncc(C(=O)C3=C(O)CCCC3=O)c2=O)cc1 [Compound 213],"Plant response rating, Pigweed",[1]; [11],80
same,Pigweed plant response rating,"[1]; Postemergence, 500 g ai/ha",100
same,"Plant response rating, Pigweed",[1]; [12],50
same,"Plant response rating, Pigweed",[1]; [13],90
same,"Plant response rating, Barnyardgrass",[2]; [11],20
same,Barnyardgrass plant response rating,"[2]; Postemergence, 500 g ai/ha",100
same,"Plant response rating, Barnyardgrass",[2]; [12],0
same,"Plant response rating, Barnyardgrass",[2]; [13],30
same,"Plant response rating, Wheat",[3]; [11],0
same,Wheat plant response rating,"[3]; Postemergence, 500 g ai/ha",0
same,"Plant response rating, Wheat",[3]; [12],0
same,"Plant response rating, Wheat",[3]; [13],0
same,"Plant response rating, Morningglory",[4]; [11],60
same,Morningglory plant response rating,"[4]; Postemergence, 500 g ai/ha",100
same,"Plant response rating, Morningglory",[4]; [13],60
same,"Plant response rating, Velvetleaf",[5]; [11],70
same,Velvetleaf plant response rating,"[5]; Postemergence, 500 g ai/ha",60
same,"Plant response rating, Velvetleaf",[5]; [12],40
same,"Plant response rating, Velvetleaf",[5]; [13],60
same,"Plant response rating, Foxtail, Giant",[6]; [11],10
same,"Foxtail, Giant plant response rating","[6]; Postemergence, 500 g ai/ha",40
same,"Plant response rating, Foxtail, Giant",[6]; [12],10
same,"Plant response rating, Foxtail, Giant",[6]; [13],30
same,"Plant response rating, Corn",corn (Zea mays); [11],0
same,Corn plant response rating,"corn (Zea mays); Postemergence, 500 g ai/ha",20
same,"Plant response rating, Corn",corn (Zea mays); [12],0
same,"Plant response rating, Corn",corn (Zea mays); [13],0
same,"Plant response rating, Crabgrass, Large",[7]; [11],20
same,"Crabgrass, Large plant response rating","[7]; Postemergence, 500 g ai/ha",50
same,"Plant response rating, Crabgrass, Large",[7]; [12],0
same,"Plant response rating, Crabgrass, Large",[7]; [13],50
same,"Plant response rating, Flood, Ducksalad",[8],100
same,"Plant response rating, Ducksalad",[8]; [14],85
same,"Plant response rating, Ducksalad",[8]; [15],90
same,Ducksalad plant response rating,[8],75
same,"Plant response rating, Flood, Rice",rice (Oryza sativa),20
same,"Plant response rating, Rice",rice (Oryza sativa); [14],0
same,"Plant response rating, Rice",rice (Oryza sativa); [15],0
same,Rice plant response rating,rice (Oryza sativa),0
same,"Plant response rating, Flood, Barnyardgrass",[9],30
same,"Plant response rating, Barnyardgrass",[9]; [14],0
same,"Plant response rating, Barnyardgrass",[9]; [15],0
same,Barnyardgrass plant response rating,[9],0
same,"Plant response rating, Flood, Sedge, Umbrella",[10],90
same,"Plant response rating, Sedge, Umbrella",[10]; [14],80
same,"Plant response rating, Sedge, Umbrella",[10]; [15],85
same,"Sedge, Umbrella plant response rating",[10],65
